Measurements taken from PubChem BioAssay AID1053179 (The Scripps Research Institute Molecular Screening Center, 2014).
Active and inactive are the calls of the source.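 Rule for the calls: active = IC50 for loss of cell viability, measured as ATP drop, at or below 10 µM; inactive = the rest.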

system: Jurkat viability, CellTiter-Glo ATP luminescence; test: viability loss in human Jurkat cells – cell-based, luminescence, powder samples, cytotoxicity control for TAAR1 agonist/antagonist project, late-stage follow-up (AID 1053179)

For `COc1cc(C(=O)CCN2CCC(c3ccccc3)C2)cc(OC)c1OC` (configuration not stated), which IC50 is on record?
The IC50 was 7.06 µM.

With `Cc1ccc(C(=O)CCN2CCC(c3ccccc3)C2)cc1` (configuration not stated) as the compound, how does the IC50 read?
Its IC50 is 5.06 µM.

Which IC50 does the source give for `N#Cc1c(C(F)(F)F)cc(-c2ccc(Cl)cc2)nc1SCC(=O)N1CCCC1` here?
Its IC50 is > 83.3 µM (inactive).

With `N#Cc1c(C(F)(F)F)cc(-c2ccc(Cl)cc2)nc1SCC(=O)Nc1ncccn1` as the compound, how does the IC50 read?
The IC50 was 53 µM (inactive).

How did the IC50 turn out when `O=C(CCN1CCC(c2ccccc2)C1)c1ccccc1` (configuration not stated) was run?
The IC50 was 3.95 µM.

`N#Cc1c(C(F)(F)F)cc(-c2ccc(Cl)cc2)nc1SCC(=O)N1CCCCCC1` was tested. Which IC50 did it give?
The IC50 was > 83.3 µM (inactive).

With `CC(CN1CCCC1Cc1ccccc1)C(=O)c1ccc2c(c1)OCCO2` (configuration not stated) as the compound, how does the IC50 read?
The IC50 was 3.66 µM.
